Experimental data taken from ChEMBL document CHEMBL1201862, “PubChem BioAssay data set” (2004).
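Dose response: 5 concentrations. Exposure: 48 h. Format: 96-well plates. Endpoint: linear interpolation; highest concentration if not reached. GI50 = concentration required for 50% inhibition of growth.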 Active and inactive are the calls of the source. Cut-off read from the data, not from the text of the source: active = GI50 up to about 1.1 µM and inactive = higher.

Columns and labels:
Experiment in all cases: DTP human tumour cell line panel, 48 h
HOP-62 = test system: HOP-62
SNB-19 = test system: SNB-19
SNB-75 = test system: SNB-75
M14 = test system: M14
CCRF-CEM = test system: CCRF-CEM
IGROV-1 = test system: IGROV-1
UACC-62 = test system: UACC-62
MDA-N = test system: MDA-N
MDA-MB-231 = test system: MDA-MB-231
KM12 = test system: KM12
DU-145 = test system: DU-145
A549 = test system: A549
SK-MEL-2 = test system: SK-MEL-2
786-0 = test system: 786-0
COLO 205 = test system: COLO 205
MCF7 = test system: MCF7
OVCAR-3 = test system: OVCAR-3
SR = test system: SR
Hs-578T = test system: Hs-578T
U-251 = test system: U-251
ACHN = test system: ACHN
NCI/ADR-RES = test system: NCI/ADR-RES
NCI-H522 = test system: NCI-H522
HCC 2998 = test system: HCC 2998
UACC-257 = test system: UACC-257
BT-549 = test system: BT-549
MOLT-4 = test system: MOLT-4
HCT-116 = test system: HCT-116
HCT-15 = test system: HCT-15
RXF 393 = test system: RXF 393
OVCAR-8 = test system: OVCAR-8
Malme-3M = test system: Malme-3M
SK-OV-3 = test system: SK-OV-3
SF-295 = test system: SF-295
RPMI-8226 = test system: RPMI-8226
OVCAR-5 = test system: OVCAR-5
NCI-H460 = test system: NCI-H460
CAKI-1 = test system: CAKI-1
UO-31 = test system: UO-31
EKVX = test system: EKVX
HT-29 = test system: HT-29
HL-60 = test system: HL-60
TK-10 = test system: TK-10
NCI-H226 = test system: NCI-H226
PC-3 = test system: PC-3
SN12C = test system: SN12C
MDA-MB-435 = test system: MDA-MB-435
SF-268 = test system: SF-268
SW-620 = test system: SW-620
NCI-H23 = test system: NCI-H23
LOX IMVI = test system: LOX IMVI
K562 = test system: K562
OVCAR-4 = test system: OVCAR-4
SK-MEL-28 = test system: SK-MEL-28
SF-539 = test system: SF-539
T47D = test system: T47D
SK-MEL-5 = test system: SK-MEL-5

Question: `COc1cccc(C(=O)Nc2c3ccccc3nc3ccccc23)c1OC` was tested. Which GI50 (HOP-62) did it give?
Answer: Its GI50 is 45.7 µM (inactive).

Question: What about the GI50 (SNB-19) of the same compound?
Answer: The GI50 was 62.2 µM (inactive).

Question: What about the GI50 (SNB-75) of the same compound?
Answer: Its GI50 is 17.5 µM (inactive).

Question: What about the GI50 (M14) of the same compound?
Answer: Its GI50 is > 100 µM (inactive).

Question: And the GI50 (CCRF-CEM)?
Answer: Its GI50 is > 100 µM (inactive).

Question: What about the GI50 (IGROV-1) of the same compound?
Answer: Its GI50 is > 100 µM (inactive).

Question: And the GI50 (UACC-62)?
Answer: The GI50 was > 100 µM (inactive).

Question: And the GI50 (MDA-N)?
Answer: The GI50 was > 100 µM (inactive).

Question: And the GI50 (MDA-MB-231)?
Answer: Its GI50 is > 100 µM (inactive).

Question: And the GI50 (KM12)?
Answer: Its GI50 is > 100 µM (inactive).

Question: What about the GI50 (DU-145) of the same compound?
Answer: The GI50 was > 100 µM (inactive).

Question: What about the GI50 (A549) of the same compound?
Answer: The GI50 was 84.9 µM (inactive).

Question: What about the GI50 (SK-MEL-2) of the same compound?
Answer: Its GI50 is > 100 µM (inactive).

Question: What about the GI50 (786-0) of the same compound?
Answer: The GI50 was 52.2 µM (inactive).

Question: What about the GI50 (COLO 205) of the same compound?
Answer: Its GI50 is > 100 µM (inactive).

Question: What about the GI50 (MCF7) of the same compound?
Answer: Its GI50 is > 100 µM (inactive).

Question: What about the GI50 (OVCAR-3) of the same compound?
Answer: Its GI50 is > 100 µM (inactive).

Question: And the GI50 (SR)?
Answer: The GI50 was > 100 µM (inactive).

Question: And the GI50 (Hs-578T)?
Answer: Its GI50 is 36.8 µM (inactive).

Question: And the GI50 (U-251)?
Answer: The GI50 was > 100 µM (inactive).

Question: And the GI50 (ACHN)?
Answer: The GI50 was 45.5 µM (inactive).

Question: What about the GI50 (NCI/ADR-RES) of the same compound?
Answer: The GI50 was > 100 µM (inactive).

Question: What about the GI50 (NCI-H522) of the same compound?
Answer: Its GI50 is 29.2 µM (inactive).

Question: What about the GI50 (HCC 2998) of the same compound?
Answer: Its GI50 is > 100 µM (inactive).

Question: What about the GI50 (UACC-257) of the same compound?
Answer: The GI50 was > 100 µM (inactive).

Question: And the GI50 (BT-549)?
Answer: Its GI50 is > 100 µM (inactive).

Question: And the GI50 (MOLT-4)?
Answer: Its GI50 is > 100 µM (inactive).

Question: What about the GI50 (HCT-116) of the same compound?
Answer: Its GI50 is > 100 µM (inactive).

Question: And the GI50 (HCT-15)?
Answer: The GI50 was over 100 µM.

Question: What about the GI50 (RXF 393) of the same compound?
Answer: Its GI50 is 23.4 µM (inactive).

Question: And the GI50 (OVCAR-8)?
Answer: The GI50 was 88.9 µM (inactive).

Question: And the GI50 (Malme-3M)?
Answer: Its GI50 is > 100 µM (inactive).

Question: What about the GI50 (SK-OV-3) of the same compound?
Answer: The GI50 was 51.9 µM (inactive).

Question: What about the GI50 (SF-295) of the same compound?
Answer: The GI50 was 39.1 µM (inactive).

Question: And the GI50 (RPMI-8226)?
Answer: Its GI50 is > 100 µM (inactive).

Question: And the GI50 (OVCAR-5)?
Answer: The GI50 was > 100 µM (inactive).

Question: What about the GI50 (NCI-H460) of the same compound?
Answer: The GI50 was 76.2 µM (inactive).

Question: What about the GI50 (CAKI-1) of the same compound?
Answer: Its GI50 is > 100 µM (inactive).

Question: What about the GI50 (UO-31) of the same compound?
Answer: Its GI50 is 2.96 µM (inactive).

Question: What about the GI50 (EKVX) of the same compound?
Answer: Its GI50 is > 100 µM (inactive).

Question: And the GI50 (HT-29)?
Answer: Its GI50 is > 100 µM (inactive).

Question: What about the GI50 (HL-60) of the same compound?
Answer: Its GI50 is > 100 µM (inactive).

Question: What about the GI50 (TK-10) of the same compound?
Answer: Its GI50 is > 100 µM (inactive).

Question: And the GI50 (NCI-H226)?
Answer: Its GI50 is > 100 µM (inactive).

Question: And the GI50 (PC-3)?
Answer: Its GI50 is > 100 µM (inactive).

Question: What about the GI50 (SN12C) of the same compound?
Answer: The GI50 was > 100 µM (inactive).

Question: And the GI50 (MDA-MB-435)?
Answer: Its GI50 is > 100 µM (inactive).

Question: And the GI50 (SF-268)?
Answer: Its GI50 is 74.1 µM (inactive).

Question: And the GI50 (SW-620)?
Answer: Its GI50 is > 100 µM (inactive).

Question: What about the GI50 (NCI-H23) of the same compound?
Answer: Its GI50 is > 100 µM (inactive).

Question: And the GI50 (LOX IMVI)?
Answer: The GI50 was > 100 µM (inactive).

Question: What about the GI50 (K562) of the same compound?
Answer: The GI50 was > 100 µM (inactive).

Question: What about the GI50 (OVCAR-4) of the same compound?
Answer: The GI50 was > 100 µM (inactive).

Question: What about the GI50 (SK-MEL-28) of the same compound?
Answer: The GI50 was > 100 µM (inactive).

Question: What about the GI50 (SF-539) of the same compound?
Answer: The GI50 was > 100 µM (inactive).

Question: And the GI50 (T47D)?
Answer: The GI50 was > 100 µM (inactive).

Question: What about the GI50 (SK-MEL-5) of the same compound?
Answer: The GI50 was 29.2 µM (inactive).
